Source: patent US8168199B2, “Dipeptidyl peptidase IV inhibitors for the treatment of schizophrenia and depression” (priority 2000, dated 2012)

Tested on: Male WistarF/Han (WF) rats
Test: Elevated plus maze (EPM) testing, i.c.v. P32/98
Format: in vivo, rat
Method: Animals. […]
Elevated plus maze (EPM) testing. […] The following parameters were calculated: Total numbers of arm entries (TA); entries to closed arms (CA); entries to open arms (OA); percentage frequency of entries to open arms (% OA: OA×100/TA); total trial duration (TT): 300 s; duration of stay in closed arms (closed time; CLT); percentage share of CLT in total arms-stay duration (CLT×100/AT); duration of stay in open arms (open time; OT) and percentage share of OT in total arm-stay duration (% OT: OT×100/AT). In addition to the standard spatiotemporal measurements, “time spent and percentage of time on the central square” were recorded (center time, CT: duration of stay on platform in seconds; percentage share of CT in trial duration, % CT: CT×100/TT). […]

CC[C@H](C)[C@H](N)C(=O)N1CCSC1 [P32/98]
effect of treatment on percentage of time spent on the open arms (analysis of variance) (i.c.v. aCSF, 0.05, 5, 500 nmol): significant effect
percentage of time spent on the open arms of the EPM (i.c.v. low dose 50 pmol, 60 min before test, vs aCSF): increased
